From patent US6538029B1, “Methods for treatment of renal cell carcinoma” (Cell Pathways, priority 2002, dated 2003)
Counter-ions that a name gives are not always drawn. Like-named read-outs stand apart in the source and are kept apart here.

How the values were obtained:
PDE10 from 786-O = PDE10 from 786-O (Homo sapiens, UniProt Q9Y233); assay: Inhibition and kinetics of PDE10 from 786-O (pooled fractions of the center peak); assay type: biochemical; details: IC50 on PDE10 from 786-O (inhibition of cGMP PDE activity), pooled center-peak fractions; FIG. 8, 9
Description: (§1) Fractions were pooled from a 786-O profile from the center peak.
as §1
(§2) Protein assays were determined using the Bio-Rad DC Protein Assay. A nonlinear regression to the Michalis-Menten equation in Prism was used to determine the Km and Vmax.
as §2

PDE4 = assay: PDE inhibition, PDE4 (similar protocols); assay type: biochemical
PDEI = assay: PDE inhibition, PDEI (similar protocols); assay type: biochemical
[1] = Single, escalating dose normal human volunteer clinical trial; assay type: in vivo; details: normal human volunteers, oral single escalating dose, any dose (50 mg-700 TDD)
[2] = Phase I trial in patients with a range of solid tumors; assay type: in vivo
Description: Cycles were repeated without a treatment-free interval. Doses ranged from 100 to 800 mg/day.

[3] = Acute and seven-dose toxicity in dogs (capsules); details: both, dog, in vivo, po, 1000 mg/kg
Description: (§3) Therefore, these dogs were subsequently administered seven consecutive doses of 1000 mg/kg/day.

28-day study in rats = assay type: in vivo
Description: A 28-day study in rats was also carried out at 0, 50, 500 and 2000 mg/kg/day.

PDE5 = biological target: T1, PDE5 (Homo sapiens, UniProt O76074); assay: cGMP PDE inhibition, PDE5; assay type: biochemical
T1 construct: partially purified cGMP-specific PDE isolated from HT-29 cells; endogenous in cells; host or cells: HT-29 cells (partially purified enzyme)
Text: Compounds of this invention are also PDE2 and PDE5 inhibitors as taught in part U.S. patent application Ser. No. 09/046,739 filed Mar. 24, 1998, now abandoned. Compounds can be tested for inhibitory effect on phosphodiesterase activity using either the enzyme isolated from any tumor cell line such as HT-29 or SW-480. […] (Thompson, W. J., Teraski, W. L., Epstein, P. M., Strada, S. J., Advances in Cyclic Nucleotide Research, 10:69-92, 1979, which is incorporated herein by reference). In brief, asolution of defined substrate ^3H-cGMP specific activity (0.2 μM; 100,000 cpm; containing 40 mM Tris-HCl (pH 8.0), 5 mM MgCl2 and 1 mg/ml BSA) is mixed with the drug to be tested in a total volume of 400μl. The mixture is incubated at 30° C. for 10 minutes with partially purified cGMP-specific PDE isolated from HT-29 cells. Reactions are terminated, for example, by boiling the reaction mixture for 75 seconds. After cooling on ice, 100 μl of 0.5 mg/ml snake venom (O. Hannah venom available from Sigma) is added and incubated for 10 min at 30° C. […] The amount of radioactivity in the breakthrough and the wash from the columns in then measured with a scintillation counter. The degree of PDE5 inhibition is determined by calculating the amount of radioactivity in drug-treated reactions and comparing against a control sample (a reaction mixture lacking the tested compound).

[4] = Seven-day dose-range finding study in rats; assay type: in vivo; details: seven days
[5] = 91-day oral study in dogs; assay type: in vivo
786-O cells [6] = assay: Apoptosis on 786-O cells (Roche Cell Death Assay); assay type: cell-based, human; details: Homo sapiens, 786-0; 48 hours with drug; read-out: IC50 for induction of apoptosis in the 786-O cell line
Description: Testing of PDE10-Inhibiting Compounds for Apoptosis on Renal Carcinoma (786-O) Cells. […] After 24 hours, the media was removed and the same media containing the drug was added to the cells (0.1% DMSO final concentration). After 48 hours, apoptosis was detected using the Roche Cell Death Assay.

[7] = 91-day long-term safety assessment study in rats; assay type: in vivo
Text: These changes were not associated with any gross clinical abnormality.

[8] = rat, in vivo
[9] = dog, in vivo
Description: as §3

[10] = Acute toxicity study in rats; details: rat, in vivo
786-O cells [11] = assay type: cell-based; details: Homo sapiens, 786-0, 144 h; 6 days with drug, sulforhodamine B
Description: Testing of Neoplastic Cell Growth Inhibition of PDE10-Inhibiting Compounds on Renal Cell Carcinoma (786-O) Cells. […] After 24 hours, the media was removed, and the same media containing the drug was added to the cells (0.1% DMSO final concentration).

renal cell carcinoma = assay: Human clinical study in locally advanced or metastatic renal cell cancer; assay type: in vivo
Description: Patients were treated with 400 mg daily (200 mg twice daily) and continued at this dose throughout the study, provided no intolerable toxicity or disease progression occurred. Disease response was assessed by physical examination, chest x-ray and MRI or CT scan every eight weeks.
Nineteen patients with heavily pre-treated advanced, progressive renal cell carcinoma were entered into the study. […] The patients were on drug daily for a minimum of eight weeks.
The adverse events, which were reported (regardless of relationship), were of the nature and severity expected in this patient population.

[12] = 28 days, 50, 500 and 2000 mg/kg/day

PDE10 from 786-O, sequence (Q9Y233 290-1055 limits assumed): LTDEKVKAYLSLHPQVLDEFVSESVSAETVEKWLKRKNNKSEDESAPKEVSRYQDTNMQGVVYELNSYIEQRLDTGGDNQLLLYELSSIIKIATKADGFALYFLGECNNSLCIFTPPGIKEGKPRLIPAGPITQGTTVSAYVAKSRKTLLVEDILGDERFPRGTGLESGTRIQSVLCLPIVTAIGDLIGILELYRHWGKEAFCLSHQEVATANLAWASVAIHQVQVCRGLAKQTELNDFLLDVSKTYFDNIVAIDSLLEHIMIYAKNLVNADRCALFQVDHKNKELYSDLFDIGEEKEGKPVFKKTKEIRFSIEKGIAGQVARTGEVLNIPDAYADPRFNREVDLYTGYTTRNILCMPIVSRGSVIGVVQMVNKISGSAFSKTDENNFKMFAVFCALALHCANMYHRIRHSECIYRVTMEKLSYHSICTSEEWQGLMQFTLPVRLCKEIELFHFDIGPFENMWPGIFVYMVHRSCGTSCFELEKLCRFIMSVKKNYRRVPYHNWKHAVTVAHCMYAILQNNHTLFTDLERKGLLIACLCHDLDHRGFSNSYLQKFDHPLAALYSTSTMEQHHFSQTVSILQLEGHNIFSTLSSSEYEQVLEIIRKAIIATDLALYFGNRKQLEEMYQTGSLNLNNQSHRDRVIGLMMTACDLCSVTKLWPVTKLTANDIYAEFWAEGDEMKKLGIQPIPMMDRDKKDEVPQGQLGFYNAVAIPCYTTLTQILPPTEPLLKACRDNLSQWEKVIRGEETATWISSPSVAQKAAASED

CC1=C(CC(=O)NCc2ccccc2)c2cc(F)ccc2C1=Cc1ccncc1 [Compound 38, (Z)-5-Fluoro-2-methyl-(4-pyridylidene)-3-(N-benzyl)indenylacetamide Hydrochloride]
IC50 (PDE10 from 786-O): 3.7 µM | IC50 (PDE4): 6 µM | IC50 (PDEI): 3 µM | Side effects [1]: no significant side effects | Tolerability of therapy ([2]; 21 patients, orally twice daily for 28 consecutive days, 100 to 800 mg/day): well tolerated overall | Maximum tolerated dose ([2]; 100 to 800 mg/day): not reached | Toxicity ([2]; up to 800 mg TDD, orally, twice-daily schedule): minimally toxic | LD50 [3]: > 1000 mg/kg | Macroscopic tissue changes at necropsy (28-day study in rats; 28 days): No macroscopic tissue changes | Liver weights (28-day study in rats; 28 days, 2000 mg/kg/day): statistically significant increase | Thyroid weights (28-day study in rats; 28 days, 2000 mg/kg/day): statistically significant increases | Body weight changes, ophthalmoscopic examinations, hematological and blood chemistry values, urinalysis (28-day study in rats; [12]): unremarkable | Clinical observations (28-day study in rats; [12]): no abnormal clinical observations | Histopathological evaluation of tissues (28-day study in rats; 28 days, generally a small number of animals at 2000 mg/kg/day, one female at 500 mg/kg/day): traces of follicular cell hypertrophy, increased numbers of mitotic figures (suggestive of possible cell proliferation) in the thyroid gland and mild centrilobular hypertrophy in the liver | Slight liver and thyroid increases (28-day study in rats; 28 days, lower doses): not statistically significant | IC50 (PDE5): 4 µM | Signs of toxicity ([4]; 50 mg/kg/day): no observable signs of toxicity | Treatment-related effects ([4]; 500 mg/kg/day): an increase in absolute and relative liver weights in female rats | Treatment-related effects ([4]; 2000 mg/kg/day): labored breathing and/or abnormal respiratory sounds, decreased weights gains and food consumption in male rats, and increased liver weights in female rats | Hematology, blood chemistry, microscopic pathology ([4]; any dose level (50, 500, 2000 mg/kg/day)): No hematological or blood chemistry changes nor any microscopic pathology changes | Microscopic alterations (liver) ([5]; 91 days): no microscopic alterations | Tolerability ([5]; 91 days): well tolerated | Feces ([5]; 91 days, 150 and 300 mg/kg/day groups): Orange discoloration of the feces | Body weights ([5]; 91 days, highest dose group): Slightly lowered body weights | Liver weights ([5]; 91 days, highest dose group): increased liver weights | Toxicological effects ([5]; oral, 91 consecutive days, 50, 150 and 300 mg/kg/day): no toxicological effects | IC50 (786-O cells [6]): 1 µM | Clinical biochemistry and hematology ([7]; 91 days): no changes | Microscopic findings ([7]; 91 days): slight hepatocellular hypertrophy at 200 and 500 mg/kg/day groups, follicular cell hypertrophy at 500 mg/kg/day and increase in accumulation of hyalin droplets in the kidneys at 200 and 500 mg/kg/day group | Organ weights ([7]; 91 days, males and females at 200 and 500 mg/kg/day): dose-related trend to increased liver and thyroid/parathyroid weights | Toxicological effects ([7]; oral, 91 consecutive days, 50, 200 and 500 mg/kg/day): did not produce any major toxicological effects | Body weight gain ([8]; ip, 1000 mg/kg): reduced body weight gain | Necropsy finding ([8]; ip, 1000 mg/kg): mesenteric adhesions seen in some animals | Body weight gains ([8]; po, 2000 mg/kg): slightly reduced | Signs of toxicity ([9]; 1000 mg/kg): no signs of toxicity | Signs of drug-related effects ([9]; 1000 mg/kg/day): At no time in either dosing phase were any obvious signs of drug-related effects observed | LD50 ([10]; ip, 1000 mg/kg): > 1000 mg/kg | LD50 ([10]; po): > 2000 mg/kg | IC50 (786-O cells [11]): 1.1 µM | Serious Adverse Events due to the drug (renal cell carcinoma; 400 mg daily, renal cell carcinoma patients): No Serious Adverse Event due to the drug was reported | Patients who achieved stable disease (renal cell carcinoma; interim evaluation of 16 evaluable patients, 400 mg daily (200 mg twice daily), minimum of eight weeks): six
